Experimental data published in patent US8372799B2, “Reverse protein” (Apeptico Forschung und Entwicklung GmbH, priority 2007, dated 2013).
Where a SMILES comes first, the peptide text is derived from it. Bridges are numbered along the chain shown (N, C = ends).

Molecular target: T1, epithelial sodium channels (Homo sapiens, UniProt P37088+P51168+P51170)
T1 construct: endogenous in cells; host or cells: A549 human lung epithelial cells (ATCC CCL-185)
T1 sequence (P37088 1-669): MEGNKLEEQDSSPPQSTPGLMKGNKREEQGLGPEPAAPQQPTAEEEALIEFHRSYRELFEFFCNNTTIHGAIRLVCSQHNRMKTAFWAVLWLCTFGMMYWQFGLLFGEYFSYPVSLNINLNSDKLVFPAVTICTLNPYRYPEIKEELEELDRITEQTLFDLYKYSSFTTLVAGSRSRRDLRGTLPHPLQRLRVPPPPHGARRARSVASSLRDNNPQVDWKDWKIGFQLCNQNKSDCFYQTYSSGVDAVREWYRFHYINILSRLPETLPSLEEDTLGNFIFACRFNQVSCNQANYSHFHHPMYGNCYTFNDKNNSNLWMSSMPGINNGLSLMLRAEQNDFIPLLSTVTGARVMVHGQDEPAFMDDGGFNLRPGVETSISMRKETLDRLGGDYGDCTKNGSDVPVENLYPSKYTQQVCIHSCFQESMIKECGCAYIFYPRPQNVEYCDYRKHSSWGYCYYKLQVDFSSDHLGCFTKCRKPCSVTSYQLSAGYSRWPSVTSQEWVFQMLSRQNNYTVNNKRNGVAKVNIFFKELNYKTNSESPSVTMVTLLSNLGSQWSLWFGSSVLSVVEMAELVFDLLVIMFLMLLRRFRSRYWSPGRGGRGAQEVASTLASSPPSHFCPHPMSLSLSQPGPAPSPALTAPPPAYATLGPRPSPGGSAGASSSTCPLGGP
T1 sequence (P51168 1-640): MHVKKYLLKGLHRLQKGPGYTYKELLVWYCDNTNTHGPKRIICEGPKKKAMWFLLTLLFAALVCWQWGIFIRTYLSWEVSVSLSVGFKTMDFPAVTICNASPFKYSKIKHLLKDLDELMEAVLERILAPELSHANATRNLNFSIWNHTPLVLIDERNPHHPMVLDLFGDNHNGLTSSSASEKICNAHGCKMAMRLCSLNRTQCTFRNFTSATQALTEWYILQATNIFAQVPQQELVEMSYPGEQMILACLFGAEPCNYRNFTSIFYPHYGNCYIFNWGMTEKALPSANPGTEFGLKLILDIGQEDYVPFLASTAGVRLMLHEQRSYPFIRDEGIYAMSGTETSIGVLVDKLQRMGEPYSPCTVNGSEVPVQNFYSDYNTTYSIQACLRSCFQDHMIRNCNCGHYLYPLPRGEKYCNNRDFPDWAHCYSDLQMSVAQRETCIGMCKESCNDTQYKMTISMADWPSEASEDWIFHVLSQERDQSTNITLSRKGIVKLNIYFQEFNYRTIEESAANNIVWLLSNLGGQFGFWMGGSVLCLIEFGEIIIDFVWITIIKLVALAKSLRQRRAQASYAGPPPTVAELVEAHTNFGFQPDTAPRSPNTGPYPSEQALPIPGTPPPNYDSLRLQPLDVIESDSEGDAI
T1 sequence (P51170 1-649): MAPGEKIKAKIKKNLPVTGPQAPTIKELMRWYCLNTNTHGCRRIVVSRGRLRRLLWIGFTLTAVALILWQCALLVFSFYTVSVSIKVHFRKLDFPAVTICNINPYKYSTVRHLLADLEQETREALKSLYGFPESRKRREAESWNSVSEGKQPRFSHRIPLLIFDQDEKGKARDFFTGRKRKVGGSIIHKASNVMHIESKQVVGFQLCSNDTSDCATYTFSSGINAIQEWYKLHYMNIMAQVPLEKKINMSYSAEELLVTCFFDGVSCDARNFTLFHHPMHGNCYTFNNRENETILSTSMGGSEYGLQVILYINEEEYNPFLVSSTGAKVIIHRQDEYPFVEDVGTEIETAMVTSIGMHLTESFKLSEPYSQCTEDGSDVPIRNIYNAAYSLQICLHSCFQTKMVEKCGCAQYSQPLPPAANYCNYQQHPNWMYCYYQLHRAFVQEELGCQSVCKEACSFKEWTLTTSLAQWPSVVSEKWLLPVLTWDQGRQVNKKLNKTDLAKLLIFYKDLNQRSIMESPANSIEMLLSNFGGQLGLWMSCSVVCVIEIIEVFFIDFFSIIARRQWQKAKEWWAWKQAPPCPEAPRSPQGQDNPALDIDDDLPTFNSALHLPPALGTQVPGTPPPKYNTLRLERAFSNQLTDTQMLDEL
Test: Patch-clamp activation of sodium ion channels in A549 cells
Type: cell-based
Conditions: whole cell / cell-attached, amiloride-sensitive sodium current
Description: Furthermore, a method common in laboratories is to detect the activation of ion channels by means of patch-clamp experiments, and this is described, for example, in Clunes M. T. et al, J Physiol Volume 557, No. 3, 809-819 (Jun. 15, 2004). For patch-clamp examinations of ion channels, a glass cannula is stretched thin and filled with a neutral buffer solution. The glass cannula (patch-clamp pipette) is carefully pressed onto an intact epithelial cell. A piece of membrane is located below the pipette. An electrical resistance is thereby produced between the interior of the pipette and the external solution. An electrode attached to a sensitive amplifier dips into the pipette solution.
The electrophysiological experiments were performed on human A549 cells (ATTC No. CCL-185). A549 cells are human lung epithelial cells which are involved in the diffusion of water and electrolytes in the lungs.
The cells were suspended in DMEM-F-12 medium with 1% penicillin-streptomycin and 10% fetal calf serum, transferred into plastic cell culture vessels and cultivated in the incubator with 95% air and 5% CO2 at 37° C. The medium was changed 2 to 3 times per week. The cells double within approx. 22 hours and a cell concentration of more than 7×10^4 cells per cm^2 was not exceeded.
Macroscopic currents and single-channel currents were discharged from A549 cells in the “whole cell” and “cell-attached” configuration of the “patch-clamp” technique (Hamill et al, Pflugers Arch. 1981, 391(2):85-100, 1981). For the current dissipations in the “whole cell” configuration, the following bath and electrode solutions were used:
Bath solution: 135 mM sodium methane sulfonate, 10 mM NaCl, 2.7 mM KCl, 1.8 mM CaCl2, 2 mM MgCl2, 5.5 mM glucose, and 10 mM HEPES, pH 7.4. […]
The cover slips with the cells cultivated thereon were transferred into a test bath with a capacity of 1 ml, fixed on the microscope table (Axiovert 100, 400-fold magnification), and the cells were superfused with the above-described bath solution. […] In the “cell-attached” configuration, the current can be measured through individual ion channels beneath the electrode tip. In the “whole cell” configuration, the membrane was penetrated beneath the electrode tip so that the current flowing through all ion channels of the cell could be measured. […] Upon obtaining a Gigaohm seal, a defined membrane retaining potential was applied via a pre-amplifier (CV-4 Headstage, Axon Instruments) and an amplifier (Axopatch 1D, Axon Instr.) and the current thereby flowing through the ion channels was measured.
The pulse protocol consisted of a hyperpolarization to −100 mV for 1 s at an interval of 5 s. […] The current dissipations thus obtained were stored and analyzed by means of the program PCLAMP 6.0. […]

Row | Compound | activation of the sodium ion channels (patch clamp)
1 | CC[C@H](C)[C@H](NC(=O)[C@H](C)N)C(=O)N[C@@H](CCCCN)C(=O)N[C@@H](CO)C(=O)N1CCC[C@H]1C(=O)N[C@H]1CSSC[C@@H](C(=O)N2CCC[C@H]2C(=O)N[C@@H](CO)C(=O)N[C@H](C(=O)N[C@@H](Cc2c[nH]cn2)C(=O)N[C@H](C(=O)O)C(C)C)[C@@H](C)O)NC(=O)CNC(=O)CNC(=O)[C@H](CCCCN)NC(=O)[C@H](C)NC(=O)[C@H](CCC(=O)O)NC(=O)[C@H](C)NC(=O)CNC(=O)[C@H](CCC(=O)O)NC(=O)[C@@H]2CCCN2C(=O)[C@H]([C@@H](C)O)NC(=O)[C@H](CCC(=O)O)NC(=O)[C@H](CCCNC(=N)N)NC(=O)[C@H](CCC(N)=O)NC1=O [SEQ ID NO:1] (H-AIKSPCQRETPEGAEAKGGCPSTHV-OH; disulfide 6-20) | activation of the sodium ion channels
2 | C[C@@H]1NC(=O)CNC(=O)[C@H](CCC(=O)O)NC(=O)[C@@H]2CCCN2C(=O)[C@H]([C@@H](C)O)NC(=O)[C@H](CCC(=O)O)NC(=O)[C@H](CCCNC(=N)N)NC(=O)[C@H](CCC(N)=O)NC(=O)[C@@H](NC(=O)[C@@H]2CCCN2C(=O)[C@H](CO)NC(=O)[C@@H](N)CCCCN)CSSC[C@@H](C(=O)N2CCC[C@H]2C(=O)N[C@@H](CO)C(=O)O)NC(=O)CNC(=O)CNC(=O)[C@H](CCCCN)NC(=O)[C@H](C)NC(=O)[C@H](CCC(=O)O)NC1=O [SEQ ID NO:2] (H-KSPCQRETPEGAEAKGGCPS-OH; disulfide 4-18) | activation of the sodium ion channels
3 | C[C@@H]1NC(=O)CNC(=O)[C@H](CCC(=O)O)NC(=O)[C@@H]2CCCN2C(=O)[C@H]([C@@H](C)O)NC(=O)[C@H](CCC(=O)O)NC(=O)[C@H](CCCNC(=N)N)NC(=O)[C@H](CCC(N)=O)NC(=O)[C@@H](N)CSSC[C@@H](C(=O)O)NC(=O)CNC(=O)CNC(=O)[C@H](CCCCN)NC(=O)[C@H](C)NC(=O)[C@H](CCC(=O)O)NC1=O [SEQ ID NO:3, (NH2)Cys-Gln-Arg-Glu-Thr-Pro-Glu-Gly-Ala-Glu-Ala-Lys-Gly-Gly-Cys(COOH)] (H-CQRETPEGAEAKGGC-OH; disulfide 1-15) | activation of the sodium ion channels
